Laboratory results taken from PubChem BioAssay AID1963872 (Molecular Pharmacology Branch, DTP, NCI, 2024).

Tested on: KRAS patient-derived spheroids with HUVEC/MSC, viability
Test: Anticancer human tumor 519858-162-T-J1-PDC patient-derived colon adenocarcinoma cell line growth inhibition [KRAS2]
Details: for viability, T/C: stronger effect = lower value; active = viability on the fitted dose curve at most 10% of control; inactive = the rest
Summary of the method: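 KRAS-mutant tumor cells were grown as spheroids with HUVEC endothelial cells and human MSCs as stroma. Targeted agents were tested alone and with KRAS pathway inhibitors. Doses started at or near clinical Cmax, or 10 microM, descending half-log.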

[1] = curve of first compound, second compound 0.1 µM
[2] = curve of first compound, second compound 0.316 µM
[3] = curve of first compound, second compound 1 µM
[4] = curve of first compound, second compound 3.16 µM
[5] = second compound 0.1 µM, first compound 0.00316 µM
[6] = second compound 0.1 µM, first compound 0.01 µM
[7] = second compound 0.1 µM, first compound 0.0316 µM
[8] = second compound 0.1 µM, first compound 0.1 µM
[9] = second compound 0.1 µM, first compound 0.316 µM
[10] = second compound 0.1 µM, first compound 1 µM
[11] = second compound 0.316 µM, first compound 0.00316 µM
[12] = second compound 0.316 µM, first compound 0.01 µM
[13] = second compound 0.316 µM, first compound 0.0316 µM
[14] = second compound 0.316 µM, first compound 0.1 µM
[15] = second compound 0.316 µM, first compound 0.316 µM
[16] = second compound 0.316 µM, first compound 1 µM
[17] = second compound 1 µM, first compound 0.00316 µM
[18] = second compound 1 µM, first compound 0.01 µM
[19] = second compound 1 µM, first compound 0.0316 µM
[20] = second compound 1 µM, first compound 0.1 µM
[21] = second compound 1 µM, first compound 0.316 µM
[22] = second compound 1 µM, first compound 1 µM
[23] = second compound 3.16 µM, first compound 0.00316 µM
[24] = second compound 3.16 µM, first compound 0.01 µM
[25] = second compound 3.16 µM, first compound 0.0316 µM
[26] = second compound 3.16 µM, first compound 0.1 µM
[27] = second compound 3.16 µM, first compound 0.316 µM
[28] = second compound 3.16 µM, first compound 1 µM
[29] = curve of first compound, second compound 10 µM
[30] = second compound 0.1 µM, first compound 0.000316 µM
[31] = second compound 0.1 µM, first compound 0.001 µM
[32] = second compound 0.316 µM, first compound 0.000316 µM
[33] = second compound 0.316 µM, first compound 0.001 µM
[34] = second compound 1 µM, first compound 0.000316 µM
[35] = second compound 1 µM, first compound 0.001 µM
[36] = second compound 3.16 µM, first compound 0.000316 µM
[37] = second compound 3.16 µM, first compound 0.001 µM
[38] = second compound 10 µM, first compound 0.000316 µM
[39] = second compound 10 µM, first compound 0.001 µM
[40] = second compound 10 µM, first compound 0.00316 µM
[41] = second compound 10 µM, first compound 0.01 µM
[42] = second compound 10 µM, first compound 0.0316 µM
[43] = second compound 10 µM, first compound 0.1 µM
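Note: compound exposure lasted seven days before readout.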
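Throughout, for viability, T/C: 100% = DMSO vehicle control viability.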

CCN1CCN(Cc2ccc(Nc3ncc(F)c(-c4cc(F)c5nc(C)n(C(C)C)c5c4)n3)nc2)CC1 + C=CC(=O)N1CCN(c2nc(OCC3CCCN3C)nc3c2CCN(c2cccc4cccc(C)c24)C3)CC1CC#N
599 nM: IC50 [1]
654 nM: IC50 [3]
> 1000 nM: IC50 (curve of first compound, second compound 0.0316 µM) | IC50 [2] | IC50 [4]
inactive: viability, T/C (second compound 0.0316 µM, first compound 0.00316 µM) 76.5% | viability, T/C (second compound 0.0316 µM, first compound 0.01 µM) 57.7% | viability, T/C (second compound 0.0316 µM, first compound 0.0316 µM) 72.2% | viability, T/C (second compound 0.0316 µM, first compound 0.1 µM) 63.6% | viability, T/C (second compound 0.0316 µM, first compound 0.316 µM) 81.8% | viability, T/C (second compound 0.0316 µM, first compound 1 µM) 66.2% | viability, T/C [5] 81.6% | viability, T/C [6] 79.1% | viability, T/C [7] 75.8% | viability, T/C [8] 76.4% | viability, T/C [9] 68.7% | viability, T/C [10] 34.9% | viability, T/C [11] 61.7% | viability, T/C [12] 78.4% | viability, T/C [13] 70.7% | viability, T/C [14] 64.9% | viability, T/C [15] 49.1% | viability, T/C [16] 56.5% | viability, T/C [17] 82.1% | viability, T/C [18] 71.8% | viability, T/C [19] 60.8% | viability, T/C [20] 63% | viability, T/C [21] 73% | viability, T/C [22] 38.4% | viability, T/C [23] 51.3% | viability, T/C [24] 86.8% | viability, T/C [25] 64.4% | viability, T/C [26] 69.2% | viability, T/C [27] 76% | viability, T/C [28] 37.4%

CC(=O)Nc1cccc(-n2c(=O)n(C3CC3)c(=O)c3c(Nc4ccc(I)cc4F)n(C)c(=O)c(C)c32)c1 + C=CC(=O)N1CCN(c2nc(=O)n(-c3c(C)ccnc3C(C)C)c3nc(-c4c(O)cccc4F)c(F)cc23)C(C)C1
7.41 nM: IC50 [4]
inactive: viability, T/C (second compound 0.1 µM, first compound 0.0001 µM) 104% | viability, T/C [30] 99.5% | viability, T/C [31] 66.3% | viability, T/C [5] 83.8% | viability, T/C [6] 28.9% | viability, T/C [7] 20% | viability, T/C (second compound 0.316 µM, first compound 0.0001 µM) 85.3% | viability, T/C [32] 97.7% | viability, T/C [33] 93.4% | viability, T/C [11] 59.4% | viability, T/C [12] 40.7% | viability, T/C [13] 23.8% | viability, T/C (second compound 1 µM, first compound 0.0001 µM) 96.6% | viability, T/C [34] 67.9% | viability, T/C [35] 79.7% | viability, T/C [17] 74.9% | viability, T/C [18] 41.9% | viability, T/C [19] 25.1% | viability, T/C (second compound 3.16 µM, first compound 0.0001 µM) 74.2% | viability, T/C [36] 79% | viability, T/C [37] 76.3% | viability, T/C [23] 102% | viability, T/C [24] 38.4% | viability, T/C [25] 19.1% | viability, T/C (second compound 10 µM, first compound 0.0001 µM) 89.7% | viability, T/C [38] 90.5% | viability, T/C [39] 107% | viability, T/C [40] 61.5% | viability, T/C [41] 31% | viability, T/C [42] 17.4%
7.54 nM: IC50 [3]
4.51 nM: IC50 [29]
5.48 nM: IC50 [2]
6.3 nM: IC50 [1]

CC(C)n1nc(-c2ccc3oc(N)nc3c2)c2c(N)ncnc21 + CC1OCC2(CCN(c3cnc(Sc4ccnc(N)c4Cl)c(N)n3)CC2)C1N
inactive: viability, T/C [30] 92.4% | viability, T/C [31] 90.3% | viability, T/C [5] 100% | viability, T/C [6] 89.7% | viability, T/C [7] 86.2% | viability, T/C [8] 77% | viability, T/C [32] 104% | viability, T/C [33] 85.6% | viability, T/C [11] 88.6% | viability, T/C [12] 60.8% | viability, T/C [13] 71.3% | viability, T/C [14] 65.5% | viability, T/C [34] 86.5% | viability, T/C [35] 84.9% | viability, T/C [17] 78% | viability, T/C [18] 102% | viability, T/C [19] 89.7% | viability, T/C [20] 80.7% | viability, T/C [36] 60.2% | viability, T/C [37] 91.6% | viability, T/C [23] 90.1% | viability, T/C [24] 93.9% | viability, T/C [25] 91.8% | viability, T/C [26] 92.9% | viability, T/C [38] 76.8% | viability, T/C [39] 85.7% | viability, T/C [40] 89.2% | viability, T/C [41] 105% | viability, T/C [42] 112% | viability, T/C [43] 100%
> 100 nM: IC50 [1] | IC50 [2] | IC50 [3] | IC50 [4] | IC50 [29]

O=C(c1cc(Cc2n[nH]c(=O)c3ccccc23)ccc1F)N1CCN(C(=O)C2CC2)CC1 + CC1OCC2(CCN(c3cnc(Sc4ccnc(N)c4Cl)c(N)n3)CC2)C1N
inactive: viability, T/C [7] 105% | viability, T/C [8] 76.6% | viability, T/C [9] 80.4% | viability, T/C [10] 87.1% | viability, T/C (second compound 0.1 µM, first compound 3.16 µM) 98.5% | viability, T/C (second compound 0.1 µM, first compound 10 µM) 76.4% | viability, T/C [13] 83.7% | viability, T/C [14] 100% | viability, T/C [15] 67.7% | viability, T/C [16] 86.6% | viability, T/C (second compound 0.316 µM, first compound 3.16 µM) 78.1% | viability, T/C (second compound 0.316 µM, first compound 10 µM) 95.7% | viability, T/C [19] 100% | viability, T/C [20] 81.7% | viability, T/C [21] 68.3% | viability, T/C [22] 66.9% | viability, T/C (second compound 1 µM, first compound 3.16 µM) 66.8% | viability, T/C (second compound 1 µM, first compound 10 µM) 76.6% | viability, T/C [25] 67.5% | viability, T/C [26] 82.2% | viability, T/C [27] 70.8% | viability, T/C [28] 57.1% | viability, T/C (second compound 3.16 µM, first compound 3.16 µM) 83.7% | viability, T/C (second compound 3.16 µM, first compound 10 µM) 98.7% | viability, T/C [42] 91.3% | viability, T/C [43] 75.1% | viability, T/C (second compound 10 µM, first compound 0.316 µM) 66.7% | viability, T/C (second compound 10 µM, first compound 1 µM) 57.9% | viability, T/C (second compound 10 µM, first compound 3.16 µM) 73% | viability, T/C (second compound 10 µM, first compound 10 µM) 65.8%
> 10000 nM: IC50 [1] | IC50 [2] | IC50 [3] | IC50 [4] | IC50 [29]

O=C(c1cc(Cc2n[nH]c(=O)c3ccccc23)ccc1F)N1CCN(C(=O)C2CC2)CC1
> 10000 nM: IC50 (curve of compound)
